From patent publication US8722616B2, “Anti-HIV peptides and methods of use thereof” (priority 2009, dated 2014)
No end group written: not given here.

What was measured:
CEM-SS cells = test: Cytotoxicity in the CPE assay (XTT, 50% reduction in cell viability)
Experimental: (§1) Anti-HIV cytopathic effect inhibition assays were conducted as described (Buckheit et al. (1995) Antimicrob. Agents Chemother., 39:2718-2727). In brief, serially diluted peptides were added to a 96-well round bottom microtiter plate in triplicate. CEM-SS cells at a concentration of 2.5×10^3 cells per well and HIV-1IIIB at the appropriate pre-determined titer were sequentially added to the microtiter plate. The cultures were incubated at 5% CO2/37° C. for six days. Following the incubation, the microtiter plates were stained with XTT tetrazolium dye to evaluate the efficacy and toxicity of the test compound(s).
as §1, with “Cytopathic Effect (CPE) Inhibition Assay: The CPE assay was performed” for “Anti-HIV cytopathic effect inhibition assays were conducted”, “as previously” for “as”, “Briefly,” for “In brief,”, “compound was” for “peptides were”

HIV-1IIIB = test: microbe, parasite or virus in culture
Experimental: as §1
as §1, with “Cytopathic Effect (CPE) Inhibition Assay: The CPE assay was performed” for “Anti-HIV cytopathic effect inhibition assays were conducted”, “as previously” for “as”, “Briefly,” for “In brief,”, “compound was” for “peptides were”

in vitro = conditions: human
Experimental: as §1
as §1, with “Cytopathic Effect (CPE) Inhibition Assay: The CPE assay was performed” for “Anti-HIV cytopathic effect inhibition assays were conducted”, “as previously” for “as”, “Briefly,” for “In brief,”, “compound was” for “peptides were”

[1] = read-out: TC50, Table 1, CEM-SS cells, six days, 50% reduction in cell viability
[2] = Table 1, CEM-SS cells, HIV-1IIIB, six days, 50% inhibition of virus replication
[3] = Table 5, BMAP-27-derived peptides, CEM-SS cells
[4] = >100 μg/ml defined as HIV inactive
[5] = read-out: TC50, Table 3, CEM-SS cells
[6] = Table 4, LL-37-derived peptides, CEM-SS cells

GMASKAGAIAGKIAKVALKAL-NH2 [PGLa, reference compound]
CC50 (CEM-SS cells; [1]): > 50.8 µM
EC50 (HIV-1IIIB; [2]): > 50.8 µM

GNNRPVYIPQPRPPHPRI [Apidaecin IA, reference compound]
CC50 (CEM-SS cells; [1]): > 47.4 µM
EC50 (HIV-1IIIB; [2]): > 47.4 µM

GRFKRFRKKFKKLFK-NH2 [BMAP-15]
CC50 at 6 days (in vitro): > 49.6 µM
EC50 (HIV-1IIIB; [3]): > 49.6 µM

GRFKRFRKKFKKLFKKIS-NH2 [BMAP-18]
CC50 at 6 days (in vitro): 8.45 µM
EC50 (HIV-1IIIB; [4]): 0.8 µg/mL
EC50 (HIV-1IIIB; [3]): 0.35 µM

GRFKRFRKPFKKLFKKIS-NH2 [BMAP-18P9]
CC50 at 6 days (in vitro): 18.9 µM
EC50 (HIV-1IIIB; [3]): 3.2 µM

GRFKRIRKKLKKLFKKIS-NH2 [BMAP-18I6L10]
CC50 at 6 days (in vitro): 2.79 µM
EC50 (HIV-1IIIB; [3]): > 44 µM

GWFDIIKKIASEL [Peptide B4]
CC50 (CEM-SS cells): 38.9 µM
EC50 (HIV-1IIIB; 1IIIB): 10.7 µM

GWFDVVKHIAKRF-NH2 [Peptide D70] [listing 1 of 2 here]
EC50 (HIV-1IIIB; [2]): 2.99 µM

GWFDVVKHIAKRF-NH2 [Peptide D70] [listing 2 of 2 here]
CC50 (CEM-SS cells; [1]): 10.6 µM

GWLKKIESIIDAF [Peptide B8]
CC50 (CEM-SS cells; read-out: TC50, Table 2, CEM-S cells): > 65.8 µM
EC50 (HIV-1IIIB; Table 2, sequence shuffling, CEM-S cells): 29.5 µM

H-GFKDLLKGAAKALVKTVLF-NH2 [Ascaphin-8, reference compound]
CC50 (CEM-SS cells): 2.9 µM

H-GLADFLNKAVGKVVDFVKS-NH2 [Desertcolin 1, reference compound]
CC50 (CEM-SS cells): > 49.9 µM
EC50 (HIV-1IIIB; 1IIIB): > 49.9 µM

H-GLLGLLGSVVSHVVPAIVGHF-NH2 [Maculatin 1.3, reference compound]
CC50 (CEM-SS cells): 8.02 µM

HVDKKVADKVLLLKQLRIMRLLTRL [Spinigerin, reference compound]
toxicity to human cells at (CEM-SS cells): ≥ 25 µM
CC50 (CEM-SS cells; human, 6 days): > 33.3 µM

IKWKKLLRAAKRIL-NH2 [Peptide D74]
CC50 (CEM-SS cells; [1]): 1.3 µM
EC50 (HIV-1IIIB; [2]): > 57.6 µM

ILGPVLGLVSDTLDDVLGIL [Maximin H5, reference compound]
CC50 (CEM-SS cells; [5]): > 49.4 µM
EC50 (HIV-1IIIB; Table 3, CEM-SS cells): > 49.4 µM

ILGPVLGLVSRTLRRVLGIL [Maximin H5r3]
CC50 (CEM-SS cells; [5]): 8.7 µM
EC50 (HIV-1IIIB; Table 3, CEM-SS cells): 2.2 µM

INLKAIAALAKKLL [Mastoparan M, reference compound]
CC50 (CEM-SS cells; [1]): > 67.6 µM
EC50 (HIV-1IIIB; [2]): > 67.6 µM

KGRGKQGGKVRAKAKTRSS [Parasin I, reference compound]
CC50 (CEM-SS cells; [1]): > 50 µM
EC50 (HIV-1IIIB; [2]): > 50 µM

KRIVQRIKDFLR-NH2 [KR-12]
CC50 at 6 days (in vitro): > 63.5 µM
EC50 (HIV-1IIIB; [6]): > 63.5 µM

KRIVQRIKDFLRNLVPRTES [KR-20]
CC50 at 6 days (in vitro): > 40.5 µM

LLGDLLRKSKEKIGKEFKRIVQR-NH2 [LL-23]
CC50 at 6 days (in vitro): > 35.4 µM

LLGDLLRKSKEKIGKEFKRIVQRIKDFLRNLVPRTES [LL-37, reference compound]
CC50 at 6 days (in vitro): 18.4 µM
EC50 (HIV-1IIIB; [4]): 7.3 µg/mL
EC50 (HIV-1IIIB; [6]): 1.6 µM

LLKELWTKIKGAGKAVLGKIKGLL [Ponericin L2, reference compound]
CC50 (CEM-SS cells; [1]): 24.7 µM
EC50 (HIV-1IIIB; [2]): 1.4 µM

NLVSGLIEARKYLEQLHRKLKNRKV [Peptide D88] [listing 1 of 2 here]
EC50 (HIV-1IIIB; [2]): > 33.3 µM

NLVSGLIEARKYLEQLHRKLKNRKV [Peptide D88] [listing 2 of 2 here]
CC50 (CEM-SS cells; [1]): > 33.3 µM

RPKHPIKHQGLPQEVLNENLLRF [Isracidin, reference compound]
CC50 (CEM-SS cells; [1]): > 36.2 µM
EC50 (HIV-1IIIB; [2]): > 36.2 µM

RQRVEELSKFSKKGAAARRRK [Misgurin, reference compound]
CC50 (CEM-SS cells; [1]): > 40 µM
EC50 (HIV-1IIIB; [2]): > 40 µM

SLSRFLRFLKIVYRRAF-NH2 [Peptide D98]
CC50 (CEM-SS cells; [1]): 8.6 µM
EC50 (HIV-1IIIB; [2]): 0.83 µM

SWKSMAKKLKEYMEKLKQRA [Latarcin 3a, reference compound]
EC50 (HIV-1IIIB; [4]): ~100 µg/mL

VDKPDYRPRPRPPNM [Metalnikowin I, reference compound]
CC50 (CEM-SS cells; [1]): > 54.4 µM
EC50 (HIV-1IIIB; [2]): > 54.4 µM
